Test results taken from the supplement of paper PMC9663587.

How the values were obtained:
Assay in all cases: increase in dead-cell fraction, 72 h; higher = more death;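 also: breast cancer cell lines in 384-well plates, stained with Hoechst plus LIVE/DEAD far red dye and imaged, cells above an LDR intensity threshold counted dead, Hoechst-negative corpses included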
[1] = compound: COc1cc2nccc(Oc3ccc(NC(=O)C4(C(=O)Nc5ccc(F)cc5)CC4)cc3)c2cc1OC [Cabozantinib]
[2] = compound: NC(=O)Nc1cc(-c2cccc(F)c2)sc1C(=O)N[C@H]1CCCNC1 [AZD7762]
[3] = compound: O=C(c1cc(Cc2n[nH]c(=O)c3ccccc23)ccc1F)N1CCN(C(=O)C2CC2)CC1 [Olaparib/AZD2281]
[4] = compound: CN(C)C/C=C/C(=O)Nc1ccc(O[C@@H]2CCC[C@@H](Nc3ncc(Cl)c(-c4c[nH]c5ccccc45)n3)C2)cc1 [BSJ-01-175]
[5] = compound: CC(C)Nc1cc(-c2c[nH]c(C(=O)N[C@H](CO)c3cccc(Cl)c3)c2)c(Cl)cn1 [BVD523]
[6] = compound: CC1=CN2C(=O)C=C(N=C2C(=C1)C(C)NC3=CC=CC=C3)N4CCOCC4 [TGX221]

Question: Which “increase in dead-cell fraction” value ([1]; 0.001 µM) does the source give for AU565 here?
Answer: 0.0017

Question: What about the “increase in dead-cell fraction” value ([1]; 0.003162 µM) of the same cell line?
Answer: 0.0057

Question: And the “increase in dead-cell fraction” value ([1]; 0.01 µM)?
Answer: 0.0018

Question: What about the “increase in dead-cell fraction” value ([1]; 0.03162 µM) of the same cell line?
Answer: -0.0008

Question: And the “increase in dead-cell fraction” value ([1]; 0.1 µM)?
Answer: -0.003

Question: And the “increase in dead-cell fraction” value ([1]; 0.3162 µM)?
Answer: 0.0025

Question: And the “increase in dead-cell fraction” value ([1]; 1 µM)?
Answer: 0.0028

Question: And the “increase in dead-cell fraction” value ([1]; 3.162 µM)?
Answer: -0.0021

Question: What about the “increase in dead-cell fraction” value ([1]; 10 µM) of the same cell line?
Answer: 0.0274

Question: What about the “increase in dead-cell fraction” value ([2]; 0.001 µM) of the same cell line?
Answer: 0.0024

Question: And the “increase in dead-cell fraction” value ([2]; 0.003162 µM)?
Answer: -0.0005

Question: And the “increase in dead-cell fraction” value ([2]; 0.01 µM)?
Answer: -0.0036

Question: What about the “increase in dead-cell fraction” value ([2]; 0.03162 µM) of the same cell line?
Answer: -0.0044

Question: And the “increase in dead-cell fraction” value ([2]; 0.1 µM)?
Answer: -0.0002

Question: And the “increase in dead-cell fraction” value ([2]; 0.3162 µM)?
Answer: 0.0011

Question: And the “increase in dead-cell fraction” value ([2]; 1 µM)?
Answer: 0.0228

Question: And the “increase in dead-cell fraction” value ([2]; 3.162 µM)?
Answer: 0.106

Question: And the “increase in dead-cell fraction” value ([2]; 10 µM)?
Answer: 0.232

Question: And the “increase in dead-cell fraction” value ([3]; 0.001 µM)?
Answer: -0.0007

Question: What about the “increase in dead-cell fraction” value ([3]; 0.003162 µM) of the same cell line?
Answer: -0.0016

Question: And the “increase in dead-cell fraction” value ([3]; 0.01 µM)?
Answer: 0.0011

Question: What about the “increase in dead-cell fraction” value ([3]; 0.03162 µM) of the same cell line?
Answer: -0.0026

Question: What about the “increase in dead-cell fraction” value ([3]; 0.1 µM) of the same cell line?
Answer: 0.0033

Question: What about the “increase in dead-cell fraction” value ([3]; 0.3162 µM) of the same cell line?
Answer: -0.0012

Question: And the “increase in dead-cell fraction” value ([3]; 1 µM)?
Answer: -0.006

Question: And the “increase in dead-cell fraction” value ([3]; 3.162 µM)?
Answer: -0.0026

Question: And the “increase in dead-cell fraction” value ([3]; 10 µM)?
Answer: 0.0043

Question: And the “increase in dead-cell fraction” value ([4]; 0.001 µM)?
Answer: -0.006

Question: What about the “increase in dead-cell fraction” value ([4]; 0.003162 µM) of the same cell line?
Answer: 0.0214

Question: What about the “increase in dead-cell fraction” value ([4]; 0.01 µM) of the same cell line?
Answer: 0.121

Question: And the “increase in dead-cell fraction” value ([4]; 0.03162 µM)?
Answer: 0.26

Question: And the “increase in dead-cell fraction” value ([4]; 0.1 µM)?
Answer: 0.296

Question: And the “increase in dead-cell fraction” value ([4]; 0.3162 µM)?
Answer: 0.35

Question: What about the “increase in dead-cell fraction” value ([4]; 1 µM) of the same cell line?
Answer: 0.443

Question: What about the “increase in dead-cell fraction” value ([4]; 3.162 µM) of the same cell line?
Answer: 0.432

Question: And the “increase in dead-cell fraction” value ([4]; 10 µM)?
Answer: 0.68

Question: What about the “increase in dead-cell fraction” value ([5]; 0.001 µM) of the same cell line?
Answer: -0.0105

Question: What about the “increase in dead-cell fraction” value ([5]; 0.003162 µM) of the same cell line?
Answer: -0.0083

Question: What about the “increase in dead-cell fraction” value ([5]; 0.01 µM) of the same cell line?
Answer: -0.0074

Question: And the “increase in dead-cell fraction” value ([5]; 0.03162 µM)?
Answer: -0.0063

Question: And the “increase in dead-cell fraction” value ([5]; 0.1 µM)?
Answer: -0.0004

Question: What about the “increase in dead-cell fraction” value ([5]; 0.3162 µM) of the same cell line?
Answer: -0.0069

Question: What about the “increase in dead-cell fraction” value ([5]; 1 µM) of the same cell line?
Answer: 0.0092

Question: What about the “increase in dead-cell fraction” value ([5]; 3.162 µM) of the same cell line?
Answer: 0.0104

Question: What about the “increase in dead-cell fraction” value ([5]; 10 µM) of the same cell line?
Answer: 0.0436

Question: What about the “increase in dead-cell fraction” value ([6]; 0.001 µM) of the same cell line?
Answer: 0

Question: What about the “increase in dead-cell fraction” value ([6]; 0.003162 µM) of the same cell line?
Answer: -0.0043

Question: And the “increase in dead-cell fraction” value ([6]; 0.01 µM)?
Answer: -0.0042

Question: And the “increase in dead-cell fraction” value ([6]; 0.03162 µM)?
Answer: -0.0019

Question: What about the “increase in dead-cell fraction” value ([6]; 0.1 µM) of the same cell line?
Answer: 0.0014

Question: And the “increase in dead-cell fraction” value ([6]; 0.3162 µM)?
Answer: 0.003

Question: What about the “increase in dead-cell fraction” value ([6]; 1 µM) of the same cell line?
Answer: 0.0069

Question: And the “increase in dead-cell fraction” value ([6]; 3.162 µM)?
Answer: 0.0045

Question: What about the “increase in dead-cell fraction” value ([6]; 10 µM) of the same cell line?
Answer: 0.0099
